In patent publication US9655886B2, “Substituted 2,3,4,5-tetrahydro-1H-pyrido[4,3-b]indoles, methods for use thereof” (priority 2015, dated 2017):
pIC50: −log10 of the molar value.

Legend:
BALB/c male mice [1] = test: Mice Behavior an Elevated Cross Shaped Labyrinth (tranquilizing action); assay type: in vivo; conditions: preference index for open sections, number of defecations; FIG. 19-21
Text: The length of each section in the labyrinth is 30 cm, the width is 5 cm, the height of the walls is 15 cm. Two opposite sections are closed by transparent walls on the sides and on the butt ends, the other two sections are lit and opened. A mouse was placed in the center of the labyrinth and for the next five minutes the number of entries the open and closed sections and the time spent in each type of section was registered. […] The animals usually avoid the open sections (the preference index is between 0.2 and 0.3).

SHK male mice = test: Recognition of New Objects by Mice Under Scopolamine and MK-801; assay type: in vivo; conditions: scopolamine 1 mg/kg and MK-801 0.2 mg/kg; FIG. 13-14
Experimental: The experiments were carried out in a closed cross shaped labyrinth which consisted of 4 peripheral sections connected with the central chamber via a 7×7 cm hole. The labyrinth was made of black plastic and its sections were of 14×14×14 cm size. The top cover of the labyrinth was transparent.
A mouse was placed in the central section of the labyrinth and allowed to investigate the environment. A mouse was considered to have entered a section once all of its four paws were inside the chamber. A test was considered to be completed when the mouse had moved 12 times between the sections, having made a total of 13 visits. The floor of the labyrinth was cleaned after each animal.
With each mouse the test was carried out twice with 1 hour interval.
During the first test, each section of the labyrinth contained a circular plastic cup of 3 cm height and 7 cm diameter. During the second test the cover in each of the two opposing sections was replaced by a conical glass bulb of 7 cm height and 4 cm across the bottom. The time that the mice spent in each section of the labyrinth was registered and the index of new object recognition was calculated as the ratio of the time spent in the sections with the bulbs to the time spent in all sections of the labyrinth. If no preference is given to the sections with new objects the index is 0.5.
When new objects appear the mice spend more time in the section containing them that results in an increased recognition index. Scopolamine (1 mg/kg) and MK-801 (0.2 mg/kg) disturbed learning (memory) that leads to lowering of the recognition index.

BALB/c male mice [2] = test: Passive Avoidance of Mice in a Shuttle Chamber, memory disturbed by scopolamine (Example 7); assay type: in vivo; conditions: scopolamine 0.3 mg/kg, injected 30 minutes before training; FIGS. 2-4
Experimental: A shuttle chamber (Ugo Basile, Italy) consisted of two sections was used. […] The sections were connected via a hole which could be shut with a vertical door. The floor was made of transverse metal bars on which DC current impulses could be fed. Experiments were carried out on aged male mice of line BALB/c weighing 20-24 grams. On the first day of the experiment 30 minutes before training the mice were injected intraintestinally with physiological solution of scopolamine (0.3 mg/kg) or scopolamine in combination with antagonists of 5-HT6 receptors 1.2.1(2)HCl, 1.2.1(4)HCl or 1.2.1(5)HCl. Each group consisted of at least 8 animals. The animals were placed in the light section, and the latent period of the first entry into the dark chamber was registered. Then the vertical door was closed and the animal was punished by 0.6 mA DC current for 3 seconds. After that the animal was carried back to its living cell. In 22-24 hours the same animal was placed in the light section of the shuttle chamber once again and the latent period before its entry into the dark section, the total time of its stay in the light section and the number of entries into the dark section were registered. Each observation lasted for 5 minutes. The experiment was carried out during the day time in an isolated laboratory using white noise at a level of about 70 decibel above the human hearing threshold. Scopolamine causes the disturbance of training (memory loss) which results in […]. The fact that 5-HT6 receptor antagonists can improve the learning ability that has been disturbed by scopolamine is regarded as evidence for their nootropic effect.

5-HT6 receptor = target: T1, 5-HT6 receptor (Homo sapiens, UniProt P50406); test: Inhibition of serotonine stimulated intracellular cAMP in HEK 293 cells with expressed 5-HT6 receptor (LANCE cAMP); assay type: cell-based; conditions: HEK 293 cells with artificially expressed 5-HT6 receptor; reduction of cAMP induced by serotonine
T1 construct: expressed in transfected cells; host or cells: HEK 293
T1 sequence (P50406 whole entry): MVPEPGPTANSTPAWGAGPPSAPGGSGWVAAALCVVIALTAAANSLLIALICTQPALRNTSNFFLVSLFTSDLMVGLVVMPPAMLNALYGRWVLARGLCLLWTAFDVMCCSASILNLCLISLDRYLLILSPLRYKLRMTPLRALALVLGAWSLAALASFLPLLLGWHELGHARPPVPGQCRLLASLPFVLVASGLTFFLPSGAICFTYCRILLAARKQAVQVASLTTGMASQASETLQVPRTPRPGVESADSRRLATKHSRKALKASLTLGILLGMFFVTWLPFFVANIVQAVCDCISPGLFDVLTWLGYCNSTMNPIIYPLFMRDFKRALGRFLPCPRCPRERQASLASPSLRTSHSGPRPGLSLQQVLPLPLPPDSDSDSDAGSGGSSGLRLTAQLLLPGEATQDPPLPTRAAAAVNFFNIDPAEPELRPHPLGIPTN
Experimental: The concentration of intracellular cAMP was determined using a LANCE cAMP reagent (PerkinElmer) by the method described by the manufacturer: [http://las.perkinelmer.com/content/Manuals/MAN_LANCEcAMP384KitUser.pdf].

BALB/c male mice [3] = test: Passive Avoidance of Mice in a Shuttle Chamber, scopolamine or MK-801 (Example 8); assay type: in vivo; conditions: scopolamine 0.3 mg/kg or MK-801 0.1 mg/kg; SB-742457 1 mg/kg; FIGS. 5-10
Experimental: A shuttle chamber (Ugo Basile, Italy) consisted of two sections was used. […] The sections were connected via a hole which could be shut with a vertical door. The floor was made of transverse metal bars on which DC current impulses could be fed. Experiments were carried out on aged male mice of line BALB/c weighing 20-24 grams.
On the first day of the experiment 30 minutes before training the mice were injected intraintestinally with physiological solution of scopolamine (0.3 mg/kg) or scopolamine in combination with antagonists of 5-HT6 receptors 1.2.1(2)HCl, 1.2.1(4)HCl or 1.2.1(5)HCl. Each group consisted of at least 8 animals. The animals were placed in the light section, and the latent period of the first entry into the dark chamber was registered. Then the vertical door was closed and the animal was punished by 0.6 mA DC current for 3 seconds. After that the animal was carried back to its living cell. In 22-24 hours the same animal was placed in the light section of the shuttle chamber once again and the latent period before its entry into the dark section, the total time of its stay in the light section and the number of entries into the dark section were registered. Each observation lasted for 5 minutes.
The experiment was carried out in the same way as in example 7. On the first day 30 minutes before training the mice were injected intra-intestinally with a physiological solution of scopolamine (0.3 mg/kg) or MK-801(0.1 mg/kg).

BALB/c male mice [4] = test: Training Mice in the Morris Water labyrinth, scopolamine; assay type: in vivo; conditions: scopolamine 0.6 mg/kg; 1.2.1(5)HCl 0.1 mg/kg, 1.2.1(1)HCl 1 mg/kg, tacrine 3 mg/kg; FIG. 11-12
Experimental: A circular pool of 100 cm diameter and of 30 cm sides was used. It was filled with water at 20-22° C. A circular ceramic platform of 14 cm height was placed in the pool. The behavior of the animals was registered using an automated computer video system in addition with software package of movement analyzer Any-maze (Stoelting Co., US). The experiments were carried out on aged male mice of BALB/c line weighing 20-24 grams. Before the experiments mice fit for learning were selected. This was done by placing the platform 1 cm above the water level and putting an animal on the platform for 20 seconds. Then the mouse was put in the water on the opposite side of the pool and allowed to find the platform and climb onto it for 60 seconds, where it was left for additional 20 seconds. After that the mouse was repeatedly immersed in the water on the opposite side of the pool and allowed to search for the platform. If it failed in finding the platform within 60 seconds the experimentator helped it to find the platform and climb onto it. If the mice couldn't find the platform itself in two consecutive attempts it was excluded from the experiment.
During the next two days the platform was placed 0.5 centimeters lower the water level. Every day the mice were given four attempts for finding the platform within 60 seconds. The time interval between the attempts was 20 seconds, during which the mice stayed on the platform. Every day before the first attempt the mice was placed on the platform for 20 seconds. The time needed for finding and climbing the platform was registered. The animals were sunk in water in two different places on the side of the pool opposite to the platform.
The animals of the control group were injected with physiological solution. At least 8 animals were used in each group.
On the third day the platform was removed and each animal was placed in the pool once for a period of 60 seconds. The time each mouse spent in the area where the platform had been located during the previous days was registered. […]

Row | Structure (SMILES) | tranquilizing action, elevated cross shaped labyrinth (BALB/c male mice [1]) | nootropic action, new object recognition (SHK male mice) | nootropic action (memory enhancement disturbed by scopolamine), passive avoidance (BALB/c male mice [2]) | nootropic action, passive avoidance (BALB/c male mice [3]) | improvement of mice's training, Morris water labyrinth (BALB/c male mice [4]) | other results
1 | O=C1CC2(CCCC2)CC(=O)N1CCCCN1CCN(c2ncccn2)CC1 [Buspiron] | tranquilizing action | – | – | – | – | –
2 | CC12CC3CC(C)(C1)CC(N)(C3)C2 [memantine] | – | nootropic action | – | – | – | –
3 | Cc1ccc2c(c1)c1c(n2CCc2ccccn2)CCN(C)C1.Cl [1.2.1(4)HCl, 2,8-dimethyl-5-[2-(pyridin-2-yl)ethyl]-2,3,4,5-tetrahydro-1H-pyrido[4,3-b]indole hydrochloride] | – | – | nootropic action which is the most prominent | – | – | –
4 | CN1CCc2c(c3ccccc3n2C#Cc2ccccc2)C1 [1.3(1), 2-methyl-5-phenylethynyl-2,3,4,5-tetrahydro-1H-pyrido[4,3-b]indole] | – | – | – | – | – | pIC50 (5-HT6 receptor): 5.39
5 | Cc1ccc2c(c1)c1c(n2CCc2ccncc2)CCN(C)C1.Cl [1.2.1(2)HCl, 2,8-dimethyl-5-[2-(pyridin-4-yl)ethyl]-2,3,4,5-tetrahydro-1H-pyrido[4,3-b]indole hydrochloride] | – | – | nootropic action which is the most prominent | – | – | –
6 | Cc1ccc2c(c1)c1c(n2CCc2ccccc2)CCN(C)C1.Cl [1.2.1(1)HCl, 2,8-dimethyl-5-(2-phenylethyl)-2,3,4,5-tetrahydro-1H-pyrido[4,3-b]indole hydrochloride] | tranquilizing action, which is the most prominent | nootropic action, the level of which is the most prominent | – | highest activity | statistically significant improvement of mice's training | –
7 | Cc1ccc2c(c1)c1c(n2CCc2ccc(C)nc2)CCN(C)C1.Cl [1.2.1(5)HCl, 2,8-dimethyl-5-[2-(6-methylpyridin-3-yl)ethyl]-2,3,4,5-tetrahydro-1H-pyrido[4,3-b]indole hydrochloride] | tranquilizing action | nootropic action | nootropic action | nootropic action | statistically significant improvement of mice's training | –
8 | Nc1c2c(nc3ccccc13)CCCC2 [tacrine] | – | – | – | – | statistically significant improvement of mice's training | –
9 | O=S(=O)(c1ccccc1)c1cnc2c(N3CCNCC3)cccc2c1 [SB-742457] | – | nootropic action | – | inactive | – | –
